Data taken from patent publication US10125134B2 (Mirati Therapeutics, Inc., priority 2016, dated 2018).
Like-named read-outs stand apart in the source and are kept apart here.

How the values were obtained:
KRas G12C = KRas G12C (Homo sapiens, UniProt P01116, C118S/C51S/C80L/G12C); test: KRas G12C Modification Assay (LCMS detection of covalent adduct); assay type: binding; conditions: normalized percent of control; tested at 5 μM concentration for 3 hours
Method in brief: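 Covalent modification was read by reverse-phase LC/MS of intact protein after compound exposure, each reaction stopped at its time point with 25 mM acetic acid. Unmodified-protein signal, taken as percent of total, was normalised to untreated protein and reported as POC.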

[1] = system: NCI-H358 cells (express KRas G12C), Phospho-ERK; test: Cellular inhibition of KRas G12C: Phospho-ERK in NCI-H358 cells; assay type: cell-based; conditions: pERK(Thr202/Tyr204) normalized with GAPDH, NCI-H358 cells, 3 hours, read-out: IC50
Method in brief: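 IC50 derived by 4-parameter fit of GAPDH-normalized pERK(Thr202/Tyr204) signal, as percent of DMSO control. Signal came from in-cell immunodetection with infrared secondaries after 3 h compound exposure of KRas G12C NCI-H358 cells at 0.5% DMSO.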

SMILES | POC (KRas G12C) | IC50 ([1]; Homo sapiens, NCI-H358, 3 h) | IC50 [1]
C=CC(=O)N1CCN(c2nc(OC[C@@H]3CCCN3C)nc3c2CCN(c2ncccc2C(F)(F)F)C3)CC1CC#N (stereo partly drawn) [Example 373, 2-(1-acryloyl-4-(2-(((S)-1-methylpyrrolidin-2-yl)methoxy)-7-(3-(trifluoromethyl)pyridin-2-yl)-5,6,7,8-tetrahydropyrido[3,4-d]pyrimidin-4-yl)piperazin-2-yl)acetonitrile] | C (“C”>50% POC) | > 1 µM | –
C=CC(=O)N1CCN(c2nc(OCCN(C)C)nc3c2CCN(c2ccccc2C(F)(F)F)C3)CC1CC#N (stereo not drawn) [Example 296, 2-[4-[2-[2-(dimethylamino)ethoxy]-7-[2-(trifluoromethyl)phenyl]-6,8-dihydro-5H-pyrido[3,4-d]pyrimidin-4-yl]-1-prop-2-enoyl-piperazin-2-yl]acetonitrile] | C (“C”>50% POC) | – | 0.0001 to 1 µM
C=CC(=O)N1CCN(c2nc(OC[C@@H]3CCCN3C)nc3c2CCN(c2c(C)c(C)cc4[nH]ccc24)C3)CC1 [Example 454, 1-[4-[7-(5,6-dimethyl-1H-indol-4-yl)-2-[[(2S)-1-methylpyrrolidin-2-yl]methoxy]-6,8-dihydro-5H-pyrido[3,4-d]pyrimidin-4-yl]piperazin-1-yl]prop-2-en-1-one] | C (“C”>50% POC) | 0.0001 to 1 µM | –
C=CC(=O)N1CCN(c2nc(OC[C@@H]3[C@H](F)CCN3C)nc3c2CCN(c2cccc4ccccc24)C3)C[C@@H]1CC#N [Example 438, 2-((S)-1-acryloyl-4-(2-(((2R,3R)-3-fluoro-1-methylpyrrolidin-2-yl)methoxy)-7-(naphthalen-1-yl)-5,6,7,8-tetrahydropyrido[3,4-d]pyrimidin-4-yl)piperazin-2-yl)acetonitrile] | C (“C”>50% POC) | 0.0001 to 1 µM | –
C=CC(=O)N1CCN(c2nc(OCCCN(C)C)nc3c2CCN(c2cc(O)cc4ccccc24)C3)CC1 [Example 10, 1-(4-(2-(3-(dimethylamino)propoxy)-7-(3-hydroxynaphthalen-1-yl)-5,6,7,8-tetrahydropyrido[3,4-d]pyrimidin-4-yl)piperazin-1-yl)prop-2-en-1-one] | C (“C”>50% POC) | > 1 µM | –

The next lines start with results.

POC (KRas G12C) | SMILES | IC50 ([1]; Homo sapiens, NCI-H358, 3 h) | IC50 [1]
C (“C”>50% POC) | C=CC(=O)N1CCN(c2nc(OC[C@@H]3CCCN3C)nc3c2CCN(c2c(C)c(C)cc4[nH]ncc24)C3)CC1 [Example 451, 1-[4-[7-(5,6-dimethyl-1H-indazol-4-yl)-2-[[(2S)-1-methylpyrrolidin-2-yl]methoxy]-6,8-dihydro-5H-pyrido[3,4-d]pyrimidin-4-yl]piperazin-1-yl]prop-2-en-1-one] | 0.0001 to 1 µM | –
C (“C”>50% POC) | C=CC(=O)N1CCN(c2nc(OC[C@@H]3CCCN3C)nc3c2CCN(c2cnccc2C2CC2)C3)C[C@@H]1CC#N [Example 352, 2-[(2S)-4-[7-(4-cyclopropyl-3-pyridyl)-2-[[(2S)-1-methylpyrrolidin-2-yl]methoxy]-6,8-dihydro-5H-pyrido[3,4-d]pyrimidin-4-yl]-1-prop-2-enoyl-piperazin-2-yl]acetonitrile] | 0.0001 to 1 µM | –
C (“C”>50% POC) | C=CC(=O)N1CCN(c2nc(OC[C@H]3CCCN3C)nc3c2CCN(c2ccccc2C(F)(F)F)C3)CC1CC#N (stereo partly drawn) [Example 283, 2-(1-acryloyl-4-(2-(((R)-1-methylpyrrolidin-2-yl)methoxy)-7-(2-(trifluoromethyl)phenyl)-5,6,7,8-tetrahydropyrido[3,4-d]pyrimidin-4-yl)piperazin-2-yl)acetonitrile] | 0.0001 to 1 µM | –
C (“C”>50% POC) | C=CC(=O)N1CCN(c2nc(OC[C@@H]3CCCN3C)nc3c2CCN(c2c(C)ccc4cn[nH]c24)C3)CC1CC#N (stereo partly drawn) [Example 238, 2-(1-acryloyl-4-(7-(6-methyl-1H-indazol-7-yl)-2-(((S)-1-methylpyrrolidin-2-yl)methoxy)-5,6,7,8-tetrahydropyrido[3,4-d]pyrimidin-4-yl)piperazin-2-yl)acetonitrile] | 0.0001 to 1 µM | –
